These results are taken from PubChem BioAssay (NCI).

Among the test systems are PC-3 prostate; U251 CNS; ACHN renal; MOLT-4 leukemia; OVCAR-8 ovarian; CAKI-1 renal; TK-10 renal; UACC-62 melanoma; RPMI-8226 leukemia; SF-268 CNS.
Test in all cases: inhibition of tumour cell growth, NCI panel, 48 h

Where “and” joins values, the source holds several entries; their conditions need not be identical. Identical values can stand only once.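 In this assay, cells in 96-well plates receive the compound at five concentrations for 48 hours. Endpoints are linearly interpolated between the surrounding concentrations. GI50 is the concentration that inhibits growth by half. At the TGI there is no net growth.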

In the case of `O=C(c1cccs1)c1c(C(F)(F)F)n([O-])c2ccccc2[n+]1=O`, the GI50 with PC-3 prostate is 0.448 µM; in the assay with U251 CNS it was 1.07 µM; in the assay with ACHN renal, 0.417 µM; with MOLT-4 leukemia, 2.32 µM; in the assay with OVCAR-8 ovarian it was 0.601 µM; in the assay with CAKI-1 renal it was 1 µM. The GI50 in the assay on TK-10 renal is 1.6 µM; in the assay on UACC-62 melanoma, 0.743 µM; in the assay with RPMI-8226 leukemia, 0.613 µM; with SF-268 CNS, 0.395 µM. Further, the TGI in the assay with PC-3 prostate worked out at 2.24 µM; with U251 CNS, 2.79 µM; in the assay on ACHN renal, 1.09 µM; in the assay with MOLT-4 leukemia it was 4.19 µM; with OVCAR-8 ovarian, 1.94 µM; in the assay with CAKI-1 renal, 2.36 µM. Further, the TGI came out at 5.43 µM with TK-10 renal, 1.6 µM in the assay with UACC-62 melanoma, 10.5 µM in the assay on RPMI-8226 leukemia and 1.16 µM in the assay with SF-268 CNS.
With `O=C(Nc1cccc(-n2ccc3c(NC(=O)c4ccccc4)nccc32)c1)c1cccc(C(F)(F)F)c1`, the GI50 with PC-3 prostate was 0.0434 µM; in the assay with U251 CNS it was 0.0402 µM; with ACHN renal, 0.0782 µM; in the assay with MOLT-4 leukemia, 0.168 µM; in the assay on OVCAR-8 ovarian it was 0.036 µM; in the assay with CAKI-1 renal, 0.0556 µM. Further, the GI50 was 0.103 µM in the assay on TK-10 renal, 0.0386 µM in the assay on UACC-62 melanoma, 0.0327 µM in the assay on RPMI-8226 leukemia and 0.0709 µM in the assay on SF-268 CNS. The TGI with PC-3 prostate was over 100 µM; in the assay on U251 CNS, 6.16 µM; in the assay with ACHN renal, 12.5 µM; in the assay with MOLT-4 leukemia it was over 100 µM; with OVCAR-8 ovarian, 2.43 µM; in the assay on CAKI-1 renal, 3.36 µM. Also, the TGI is 19.4 µM in the assay on TK-10 renal, 6.91 µM in the assay on UACC-62 melanoma, 1.17 µM in the assay on RPMI-8226 leukemia and 12.4 µM in the assay with SF-268 CNS.
As to `COc1c(C2CC(=O)Nc3c2cnn3Cc2ccco2)cc2c(c1OC)OCO2` (stereo not drawn), the GI50 with PC-3 prostate was 0.559 µM; with U251 CNS it was 0.499 µM; in the assay on ACHN renal, 0.833 µM; with MOLT-4 leukemia, 0.615 µM; in the assay on OVCAR-8 ovarian, 0.924 µM; in the assay with CAKI-1 renal it was 0.517 µM. In addition, the GI50 in the assay on TK-10 renal was 11.3 µM; with RPMI-8226 leukemia it was 0.396 µM; in the assay with SF-268 CNS it was 1.58 µM. Also, the TGI in the assay with PC-3 prostate was over 100 µM; with U251 CNS, over 25.8 µM; in the assay with ACHN renal, over 100 µM; in the assay on MOLT-4 leukemia, over 100 µM; with OVCAR-8 ovarian, over 100 µM; with CAKI-1 renal, over 100 µM. Further, the TGI in the assay on TK-10 renal was over 100 µM; in the assay on UACC-62 melanoma, over 100 µM; in the assay on RPMI-8226 leukemia, over 56.5 µM; with SF-268 CNS it was over 100 µM.
`CC1(C)N=C(N)N=C(N)N1c1ccc(CCCCc2ccc(S(=O)(=O)F)cc2)cc1`: the GI50 was 0.094 µM in the assay with PC-3 prostate; 0.467 µM with U251 CNS; 4.68 µM in the assay with ACHN renal; 1.41 µM in the assay with MOLT-4 leukemia; 1.47 µM in the assay on OVCAR-8 ovarian; 3.7 µM in the assay on CAKI-1 renal. Besides, the GI50 in the assay on TK-10 renal was 1.14 µM; in the assay with UACC-62 melanoma, 0.368 µM; in the assay with RPMI-8226 leukemia, 0.522 µM; in the assay with SF-268 CNS, 0.704 µM. Besides, the TGI in the assay on PC-3 prostate is 23.5 µM; in the assay with U251 CNS, 15 µM; in the assay with ACHN renal, over 100 µM; with MOLT-4 leukemia it was 24.3 µM; in the assay with OVCAR-8 ovarian it was 28.6 µM; with CAKI-1 renal it was over 100 µM. Besides, the TGI in the assay with TK-10 renal was 17.6 µM; in the assay on UACC-62 melanoma, 16.8 µM; with RPMI-8226 leukemia it was 10.8 µM; with SF-268 CNS, 16.9 µM.
`Clc1ccccc1C(c1ccccc1)(c1ccccc1)n1ccnc1`: the GI50 is 1.67 µM with PC-3 prostate; 2.48 µM in the assay on U251 CNS; 2.87 µM in the assay on ACHN renal; 1.96 µM with MOLT-4 leukemia; 2.69 µM with OVCAR-8 ovarian; 2.34 µM with CAKI-1 renal. Besides, the GI50 in the assay with TK-10 renal is 3.88 µM; in the assay with UACC-62 melanoma it was 1.44 µM; in the assay on SF-268 CNS, 3.92 µM. Also, the TGI in the assay with PC-3 prostate was 12.4 µM and 20.2 µM; in the assay on U251 CNS it was 11.8 µM and 49.8 µM; with ACHN renal it was 13.1 µM and 25.6 µM; with MOLT-4 leukemia it was 6.87 µM and 57.7 µM; in the assay with OVCAR-8 ovarian, 20 µM and 26.3 µM; with CAKI-1 renal, 15.3 µM and 50.5 µM. Further, the TGI is 13.5 µM and 30.9 µM in the assay with TK-10 renal; 6.68 µM and 27.9 µM with UACC-62 melanoma; over 62.7 µM in the assay on RPMI-8226 leukemia; 18.8 µM and 35.7 µM with SF-268 CNS.
On to `C=C1C(O)C2CCC(C)(C)C(=O)C2=C(CC(C)C)C12CC2` (stereo not drawn), for which the GI50 was 33.2 µM in the assay with PC-3 prostate; 43.4 µM in the assay on U251 CNS; 39.3 µM in the assay on ACHN renal; 33.1 µM with MOLT-4 leukemia; over 100 µM with OVCAR-8 ovarian; 31.2 µM in the assay with CAKI-1 renal. The GI50 in the assay with TK-10 renal is 67.9 µM; in the assay on UACC-62 melanoma, 90.8 µM; in the assay on RPMI-8226 leukemia, 22.3 µM; in the assay with SF-268 CNS it was 50.5 µM. The TGI in the assay with PC-3 prostate is over 100 µM; in the assay on U251 CNS, over 100 µM; in the assay with ACHN renal, over 100 µM; in the assay on MOLT-4 leukemia, over 100 µM; with OVCAR-8 ovarian it was over 100 µM; with CAKI-1 renal it was 86.6 µM. Moreover, the TGI is over 100 µM in the assay on TK-10 renal, over 100 µM with UACC-62 melanoma, 56.8 µM in the assay on RPMI-8226 leukemia and over 100 µM in the assay with SF-268 CNS.
For `C=C1CCC2C(/C=C(\C)CCC1O)OC(=O)C2C` (stereo not drawn), the GI50 in the assay with PC-3 prostate is over 100 µM; in the assay with U251 CNS it was over 100 µM; in the assay on ACHN renal, over 100 µM; in the assay on MOLT-4 leukemia, 19.6 µM; in the assay on OVCAR-8 ovarian, over 100 µM; in the assay with CAKI-1 renal it was over 100 µM. In addition, the GI50 in the assay with TK-10 renal is over 100 µM; in the assay with UACC-62 melanoma it was over 100 µM; with RPMI-8226 leukemia it was 90.4 µM; in the assay on SF-268 CNS, over 100 µM. Besides, the TGI with PC-3 prostate is over 100 µM; in the assay with U251 CNS it was over 100 µM; with ACHN renal it was over 100 µM; with MOLT-4 leukemia, 58.2 µM; with OVCAR-8 ovarian, over 100 µM; in the assay on CAKI-1 renal, over 100 µM. The TGI in the assay with TK-10 renal, with UACC-62 melanoma, in the assay on RPMI-8226 leukemia and in the assay with SF-268 CNS was over 100 µM in each case.
